Reference: patent US20180353501A1 (Arvinas, Inc., priority 2017, published 2018)

Biological target: T1, endogenous p38δ (Homo sapiens, UniProt O15264+P40337)
T1 construct: GST-VBC was immobilized on glutathione sepharose beads and incubated with MDA-MB-231 whole cell lysate (WCL); endogenous in cells; host or cells: MDA-MB-231 whole cell lysate (p38δ); GST-VBC bait made in E. coli BL21(DE3)
Experiment: Ternary complex pull-down from MDA-MB-231 whole cell lysate with GST-VBC bait
Type: binding
Text: FIGS. 15A, 15B, and 15C. Differential p38δ:PROTAC:VHL ternary complex affinities result in distinct cellular ubiquitination outcomes. (A) Both exemplary compound 50 and 46 pull-down p38δ in vitro, however compound 46 maintains ternary complex at lower concentrations. As in FIG. 14A, GST-tagged VBC was used as a bait to trap recombinant p38δ in the presence of vehicle (DMSO) or the indicated concentrations of compound 50 or 46. The rightmost lane represents a 1:25 dilution of initial input protein used in each pull-down. […] GST-VBC was immobilized on glutathione sepharose beads and incubated with MDA-MB-231 whole cell lysate (WCL) in the presence of vehicle (DMSO) or the indicated concentrations of compound 50 or 46. Beads were washed and “trapped” proteins (i.e. those that engage in a ternary complex) were eluted with SDS sample buffer and separated by SDS-PAGE. Samples were assessed by western blot and CUL2 and α-tubulin serve as positive and negative GST-VBC immunoprecipitation controls, respectively. […] FLAGimmunoprecipitated lysates were separated by SDS-PAGE and assessed via western blots detecting HA (Ub). […]
To further assess these findings, a more biologically-relevant context for measuring ternary complex formation was used. […] Thus, whether PROTAC-induced PPIs could be monitored in a complex cellular environment using CETSA was examined. […]

T1 sequence (O15264 whole entry): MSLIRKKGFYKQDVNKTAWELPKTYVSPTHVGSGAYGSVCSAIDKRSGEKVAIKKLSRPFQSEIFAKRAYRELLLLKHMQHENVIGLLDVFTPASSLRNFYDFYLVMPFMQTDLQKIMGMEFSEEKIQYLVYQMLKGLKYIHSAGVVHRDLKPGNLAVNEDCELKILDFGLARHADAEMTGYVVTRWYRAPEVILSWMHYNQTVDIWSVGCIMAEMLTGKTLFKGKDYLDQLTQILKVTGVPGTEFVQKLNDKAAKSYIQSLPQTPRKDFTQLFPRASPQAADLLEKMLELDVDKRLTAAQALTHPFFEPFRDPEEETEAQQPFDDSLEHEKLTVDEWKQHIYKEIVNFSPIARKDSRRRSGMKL
T1 sequence (P40337 whole entry): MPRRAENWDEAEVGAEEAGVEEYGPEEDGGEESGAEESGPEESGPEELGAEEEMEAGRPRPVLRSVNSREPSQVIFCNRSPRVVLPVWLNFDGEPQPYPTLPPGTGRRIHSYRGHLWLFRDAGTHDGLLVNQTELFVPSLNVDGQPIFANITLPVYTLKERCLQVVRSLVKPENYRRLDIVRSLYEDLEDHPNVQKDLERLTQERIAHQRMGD
T1 sequence (Q15370 whole entry partner): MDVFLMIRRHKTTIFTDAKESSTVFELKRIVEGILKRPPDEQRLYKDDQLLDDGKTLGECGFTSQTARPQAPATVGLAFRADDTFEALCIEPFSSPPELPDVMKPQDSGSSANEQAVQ
T1 sequence (Q15369 whole entry partner): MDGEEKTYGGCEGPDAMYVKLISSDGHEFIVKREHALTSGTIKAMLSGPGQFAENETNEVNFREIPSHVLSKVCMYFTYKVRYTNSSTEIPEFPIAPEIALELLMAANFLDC

| SMILES | enrichment of endogenous p38δ from whole cell lysate on GST-VBC bait |
| --- | --- |
| COc1cc2c(Oc3ccc(NC(=O)C4(C(=O)Nc5ccc(F)cc5)CC4)cc3F)ccnc2cc1OCCOCCOCCOc1cc(-c2scnc2C)ccc1CNC(=O)[C@@H]1C[C@@H](O)CN1C(=O)[C@H](C(C)C)N1Cc2ccccc2C1=O [compound 46] | strongly enrich for endogenous p38δ in a dose-dependent manner |
| COc1cc2c(Oc3ccc(NC(=O)C4(C(=O)Nc5ccc(F)cc5)CC4)cc3F)ccnc2cc1OCCCCOCCCCOCC(=O)N[C@H](C(=O)N1C[C@H](O)C[C@H]1C(=O)NCc1ccc(-c2scnc2C)cc1)C(C)(C)C [compound 50, N-(3-fluoro-4-((7-(4-(4-(2-(((S)-1-((2S,4R)-4-hydroxy-2-((4-(4-methylthiazol-5-yl)benzyl)carbamoyl)pyrrolidin-1-yl)-3,3-dimethyl-1-oxobutan-2-yl)amino)-2-oxoethoxy)butoxy)buto-xy)-6-methoxyquinolin-4-yl)oxy)phenyl)-N-(4-fluorophenyl)cyclopropane-1,1-dicarboxa-mide] | greatly reduced |
